# Target: AMPK
# Experiment: AMPK activation, enzyme-linked immunosorbent assay
# Type: biochemical
# Settings: Table 13, compounds of Table 6
# Outline: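 Read-out: ELISA, used to detect compound-driven activation of AMPK.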
row,EC50,Compound
1,100 to 1000 nM,"N#Cc1ccc(CN2CCC(NC(=O)c3cc4cc(NC(=O)C5CCN(Cc6ccc(F)c(F)c6)CC5)ccc4o3)CC2)cc1 [Compound 6-43, N-(2-(1-(4-cyanobenzyl)piperidin-4-ylcarbamoyl)benzofuran-5-yl)-1-(3,4-difluorobenzyl)piperidine-4-carboxamide]"
2,100 to 1000 nM,"N#Cc1ccc(CN2CCC(NC(=O)c3cc4cc(NC(=O)C5CCN(Cc6ccc(OC(F)(F)F)cc6)CC5)ccc4o3)CC2)cc1 [Compound 6-46, N-(2-(1-(4-cyanobenzyl)piperidin-4-ylcarbamoyl)benzofuran-5-yl)-1-(4-(trifluoromethoxy)benzyl) piperidine-4-carboxamide]"
3,100 to 1000 nM,"N#Cc1ccc(CN2CCC(NC(=O)c3cc4cc(NC(=O)C5CCN(Cc6ccc(C#N)c(F)c6)CC5)ccc4o3)CC2)cc1 [Compound 6-48, 1-(4-cyano-3-fluorobenzyl)-N-(2-(1-(4-cyanobenzyl)piperidin-4-ylcarbamoyl)benzofuran-5-yl)piperidine-4-carboxamide]"
4,100 to 1000 nM,"N#Cc1ccc(CN2CCC(NC(=O)c3cc4cc(NC(=O)C5CCN(Cc6ccc(C#N)cc6)CC5)ccc4o3)CC2)cc1 [Compound 6-49, l-(4-cyanobenzyl)-N-(2-(l-(4-cyanobenzyl)piperidin-4-ylcarbamoyl)benzofiiran-5-yl)piperidine-4-carbox amide]"
5,100 to 1000 nM,"N#Cc1ccc(CN2CCC(NC(=O)c3cc4cc(NC(=O)C5CCN(Cc6ccc(C(F)(F)F)cc6)CC5)ccc4o3)CC2)cc1 [Compound 6-50, N-(2-(1-(4-cyanobenzyl)piperidin-4-ylcarbamoyl)benzofuran-5-yl)-1-(4-(trifluoromethyl)benzyl) piperidine-4-carboxamide]"
6,100 to 1000 nM,"N#Cc1ccc(CN2CCC(NC(=O)c3cc4cc(NC(=O)Cc5ccc(C(F)(F)F)cc5)ccc4o3)CC2)cc1 [Compound 6-54, N-(1-(4-cyanobenzyl)piperidin-4-yl)-5-(2-(4-(trifluoromethyl)phenyl)acetamido)benzofuran-2-carboxamide]"
7,1000 to 10000 nM,"Cc1nnsc1C(=O)Nc1ccc2oc(C(=O)NC3CCN(Cc4ccc(C#N)cc4)CC3)cc2c1 [Compound 6-56, N-(2-(1-(4-cyanobenzyl)piperidin-4-ylcarbamoyl)benzofuran-5-yl)-4-methyl-1,2,3-thiadiazole-5-carboxamide]"
8,100 to 1000 nM,N#Cc1ccc(CN2CCC(NC(=O)c3cc4cc(NC(=O)c5ccc(C#N)cc5)ccc4o3)CC2)cc1 [Compound 6-57]
9,100 to 1000 nM,"COc1ccc(-n2cc(C(=O)Nc3ccc4oc(C(=O)NC5CCN(Cc6ccc(C#N)cc6)CC5)cc4c3)cn2)cc1 [Compound 6-59, N-(2-(1-(4-cyanobenzyl)piperidin-4-ylcarbamoyl)benzofuran-5-yl)-1-(4-methoxyphenyl)-1H-pyrazole-4-carboxamide]"
10,1000 to 10000 nM,"N#Cc1ccc(CN2CCC(NC(=O)c3cc4cc(NC(=O)c5ccc(-c6nnc[nH]6)cc5)ccc4o3)CC2)cc1 [Compound 6-60, 5-(4-(4H-1,2,4-triazol-3-yl)benzamido)-N-(1-(4-cyanobenzyl)piperidin-4-yl)benzofuran-2-carboxamide]"
11,100 to 1000 nM,"Cc1cc(C(=O)Nc2ccc3oc(C(=O)NC4CCN(Cc5ccc(C#N)cc5)CC4)cc3c2)no1 [Compound 6-61, N-(2-(1-(4-cyanobenzyl)piperidin-4-ylcarbamoyl)benzofuran-5-yl)-5-methylisoxazole-3-carboxamide]"
12,100 to 1000 nM,"N#Cc1ccc(CN2CCC(NC(=O)c3cc4cc(NC(=O)c5ccc(Oc6ccc(F)cc6)nc5)ccc4o3)CC2)cc1 [Compound 6-64, N-(2-(1-(4-cyanobenzyl)piperidin-4-ylcarbamoyl)benzofuran-5-yl)-6-(4-fluorophenoxy)nicotinamide]"
13,100 to 1000 nM,"N#Cc1ccc(CN2CCC(NC(=O)c3cc4cc(NC(=O)c5ccc(-n6cccn6)cc5)ccc4o3)CC2)cc1 [Compound 6-65, 5-(4-(1H-pyrazol-1-yl)benzamido)-N-(1-(4-cyanobenzyl)piperidin-4-yl)benzofuran-2-carboxamide]"
